According to article PMC5915154, “Aloe-emodin as drug candidate for cancer therapy” (Oncotarget, 2018):

How the values were obtained:
[1] = system: multidrug-resistant P-glycoprotein-overexpressing CEM/ADR5000 leukemia cells; assay: Resazurin reduction assay, CEM/ADR5000; type: cell-based, human; conditions: for IC50: Homo sapiens, CEM/ADR5000, resazurin assay, 72 h
Text: (§1) The cell lines used in the present work, their origins and maintenance conditions were previously reported. In brief, drug-sensitive CCRF-CEM and multidrug resistant P-glycoprotein-over-expressing CEM/ADR5000 leukemia cells, MDA-MB-231-pcDNA3 breast cancer cells and their transfectant subline MDA-MB-231-BCRP clone 23, HCT116 (p53^+/+) colon cancer cells and its knockout clone HCT116 (p53^-/-), U87.MG glioblastoma multiform cells and their transfectant subline U87.MGΔEGFR as well as HEK293 human embryonic kidney cells transfected with or without a cDNA for ABCB5 were used. The human peripheral mononuclear cells (PMNC) were isolated from fresh blood samples of a healthy donor by using Histopaque® (Sigma-Aldrich, Taufkirchen, Germany).
(§2) Resazurin reduction assay was conducted to test the cytotoxicity of the compounds. This assay is based on the reduction of resazurin to resorufin by viable cells. […] Briefly, aliquots of 0.5×10^4 adherent cells which were allowed to attach overnight and 1×10^4 suspension cells per well were seeded in 96-well-plates with or without the addition of varying concentrations of the test substance to get a total volume of 200 μL/well. After 72 h incubation and addition of resazurin (Sigma-Aldrich) for 4 h, staining was measured by an Infinite M2000 ProTM plate reader (Tecan, Germany) using an excitation wavelength of 544 nm and an emission wavelength of 590 nm. Each assay was independently performed for at least three times, with six parallel replicates each. The protocol has been recently reported. Fifty percent inhibition concentrations (IC50) represent the drug concentrations required to inhibit 50% of cell proliferation, which were fitted with nonlinear regression using GraphPad® Prism7.

[2] = system: drug-sensitive CCRF-CEM leukemia cells; assay: Resazurin reduction assay, CCRF-CEM; type: cell-based; conditions: Homo sapiens, 72 h
Text: as §1, §2

CCRF-CEM cells [3] = assay: Mitochondrial membrane potential (JC-1, flow cytometry); type: cell-based, human; conditions: CCRF-CEM, 0.01, 0.1, and 1 μM, 48 h
Text: The JC-1 Mitochondrial Membrane Potential Assay Kit (Cayman Chemical, Ann Arbor, MI, USA) was applied for the detection of MMP by flow cytometry according to the manufacturer’s instructions. The cationic dye, 5, 5’, 6, 6’- tetrachloro- 1, 1’, 3, 3’- tetraethylbenzimidazolylcarbocyanine iodide (JC-1) enters the mitochondria and changes its fluorescent properties based on the aggregation of the probe. In healthy cells having high MMP, JC-1 forms complexes known as J-aggregates with intense red fluorescence. On the other hand, in cells with low MMP, JC-1 remains in its monomeric form showing green fluorescence. […] A LSR-Fortessa FACS analyzer (Becton–Dickinson) was used to detect the J-aggregate form of JC-1 with an excitation wavelength of 535 ± 20 nm and an emission wavelength of 590 ± 20 nm as well as the monomeric form of JC-1 at excitation and emission wavelengths of 485 and 535 nm, respectively. The results were analyzed by the FlowJo software (Celeza, Olten, Switzerland). 2×10^4 cells were counted for each experiment which were repeated in triplicate.

CCRF-CEM cells [4] = assay: Annexin V/PI detection of apoptosis and necrosis; type: cell-based, human; conditions: 0.1 μM, 72 h
Text: A commercial annexin V/PI detection apoptosis kit was used to detect early apoptosis and necrosis according to the manufacturer’s instructions (Life Technologies, Carlsbad, CA, USA). Annexin V is a calcium-dependent phospholipid-binding protein, which binds to phosphatidylserine (PS). PS is predominantly located at the inner side of the plasma membrane under normal conditions and moves to outer surface of the membrane upon the onset of early apoptosis. This can be detected FITC-labeled annexin V. PI is a marker of late apoptosis and necrosis. We treated aliquots of 1×10^6 CCRF-CEM cells with 0.5-, 1-, 2- and 4-fold IC50 of Aloe-emodin for 48, 72 or 96 h, respectively. After washing the cells with PBS, they were stained with annexin V/FITC at room temperature for 10-15 min. Subsequently, cells were washed again and stained with PI in the dark. Then, the results were analyzed by a BD Accuri™ C6 flow cytometer at excitation wavelength 488 nm and emission wavelength 530 nm to record annexin V/FITC signals. The fluorescence of PI was detected at 488 nm excitation and was measured by a 610/20 nm band pass filter. At least three independent experiments were performed..

CCRF-CEM cells [5] = assay: Cell cycle analysis (PI, flow cytometry); type: cell-based, human; conditions: 0.01 μM and 0.1 μM, 24 h
Procedure: The cells were collected, washed in PBS and fixed with ice-cold 96% ethanol. After washing the cells with PBS again, the cells were dissolved in PBS and stained with propidium iodide (PI, Sigma-Aldrich) at a final concentration of 50 μg/mL for 15 min in the dark. Cell cycle analyses were performed using a BD Accuri™ C6 Flow cytometer (Becton-Dickinson, Heidelberg, Germany) at 488 nm excitation wavelength, and emission was measured by a 610/20 nm band pass filter. All experiments were performed at least in triplicates. The protocol has been recently reported by us.

| IC50 [1] [µM] | IC50 [2] [µM] | degree of resistance (IC50 CEM/ADR5000 divided by IC50 CCRF-CEM) ([1]; collateral sensitivity of CEM/ADR5000) [fold] | Compound | MMP depolarization (JC-1 fluorescence) (CCRF-CEM cells [3]) | apoptotic or necrotic cell death (CCRF-CEM cells [4]) | cell cycle arrest (CCRF-CEM cells [5]) |
| --- | --- | --- | --- | --- | --- | --- |
| 11 | 0.0007 |  | COc1cccc2c1C(=O)c1c(O)c3c(c(O)c1C2=O)C[C@@](O)(C(=O)CO)C[C@@H]3O[C@H]1C[C@H](N)[C@H](O)[C@H](C)O1 [doxorubicin, Doxorubicin, reference compound] | shift from red to green fluorescence | late apoptosis and early necrosis | induced both S- and G2/M-arrest |
| 46.9 | 34.4 |  | O=C(O)c1cc(O)c2c(c1)C(=O)c1cccc(O)c1C2=O [rhein] |  |  |  |
| 74.8 | 124 | 0.61 | COc1cc(O)c2c(c1)C(=O)c1cc(C)cc(O)c1C2=O [physcion] |  |  |  |
| 35.3 | 35.6 |  | Cc1cc(O)c2c(c1)C(=O)c1cc(O)cc(O)c1C2=O [emodin, Emodin] |  |  |  |
